Reference: patent US12441733B2, “Substituted 2,4-dioxotetrahydropyrimidines as intermediates in the synthesis of bruton's tyrosine kinase inhibitors” (Novartis AG, priority 2018, dated 2025)

Each molecule was assayed on TMD8 cells (assay: Resazurin cell viability (proliferation) assay in TMD8 DLBCL cells). Details: Homo sapiens, TMD8 cells (BTK dependent), 72 h, 50% growth inhibition vs vehicle, read-out: TMD8 Prol GI50.
Type: cell-based
Method in brief: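 TMD8 cells were seeded at 1×10^4 per well and treated 3 h later with compound, in an 8-point 1:4 dilution series starting at 1 μM, or DMSO, for 72 h at 37° C. Resazurin was added at 13 μg/ml final for the last 2 h, and fluorescence was read at ex 530/em 600 nm. GI50 versus vehicle was derived by curve fitting from triplicates.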

Row | Compound | GI50 [nM]
1 | Cc1ccc(C(=O)N(C)CCCCCNCc2ccc(-c3cc4c(-c5cc(F)cc(NC(=O)c6ccc(C(C)(C)O)cc6F)c5C)ncnc4[nH]3)cc2)cc1N1CCC(=O)NC1=O [Compound 30, 3-(2,4-Dioxotetrahydropyrimidin-1(2H)-yl)-N-(5-((4-(4-(5-fluoro-3-(2-fluoro-4-(2-hydroxypropan-2-yl)benzamido)-2-methylphenyl)-7H-pyrrolo[2,3-d]pyrimidin-6-yl)benzyl)amino)pentyl)-N,4-dimethylbenzamide] | 5.2
2 | COc1ccc(C(=O)N2CCC(OC3CCN(CCc4ccc(-c5cc6c(-c7cc(F)cc(NC(=O)c8ccc(C(C)(C)O)cc8F)c7C)ncnc6[nH]5)cc4)CC3)CC2)cc1N1CCC(=O)NC1=O [Compound 34, N-(3-(6-(4-(2-(4-((1-(3-(2,4-Dioxotetrahydropyrimidin-1(2H)-yl)-4-methoxybenzoyl)piperidin-4-yl)oxyl)piperidin-1-yl)ethyl)phenyl)-7H-pyrrolo[2,3-d]pyrimidin-4-yl)-5-fluoro-2-methylphenyl)-2-fluoro-4-(2-hydroxypropan-2-yl)benzamide] | 1.7
3 | Cc1c(NC(=O)c2ccc(C(C)(C)O)cc2F)cc(F)cc1-c1ncnc2[nH]c(-c3ccc(CCN4CCC5(CC4)CCN(C(=O)c4ccc(F)c(N6CCC(=O)NC6=O)c4)CC5)cc3)cc12 [Compound 47, N-(3-(6-(4-(2-(9-(3-(2,4-dioxotetrahydropyrimidin-1(2H)-yl)-4-fluorobenzoyl)-3,9-diazaspiro[5.5]undecan-3-yl)ethyl)phenyl)-7H-pyrrolo[2,3-d]pyrimidin-4-yl)-5-fluoro-2-methylphenyl)-2-fluoro-4-(2-hydroxypropan-2-yl)benzamide] | 0.53
4 | CCOc1ccc(C(=O)N2CCC3(CCN(Cc4ccc(-c5cc6c(-c7cc(F)cc(NC(=O)c8ccc(C(C)(C)O)cc8F)c7C)ncnc6[nH]5)cc4)CC3)CC2)cc1N1CCC(=O)NC1=O [Compound 4, N-(3-(6-(4-((9-(3-(2,4-Dioxotetrahydropyrimidin-1(2H)-yl)-4-ethoxybenzoyl)-3,9-diazaspiro[5.5]undecan-3-yl)methyl)phenyl)-7H-pyrrolo[2,3-d]pyrimidin-4-yl)-5-fluoro-2-methylphenyl)-2-fluoro-4-(2-hydroxypropan-2-yl)benzamide] | 1.84
5 | Cc1ccc(C(=O)N2CCC3(CCN(Cc4ccc(-c5cc6c(-c7cc(F)cc(NC(=O)c8ccc(C(C)(C)O)cc8F)c7C)ncnc6[nH]5)cc4)CC3)CC2)cc1N1CCC(=O)NC1=O [Compound 27, N-(3-(6-(4-((9-(3-(2,4-Dioxotetrahydropyrimidin-1(2H)-yl)-4-methylbenzoyl)-3,9-diazaspiro[5.5]undecan-3-yl)methyl)phenyl)-7H-pyrrolo[2,3-d]pyrimidin-4-yl)-5-fluoro-2-methylphenyl)-2-fluoro-4-(2-hydroxypropan-2-yl)benzamide] | 0.4
